Test results: patent US20160166638A1, “LACTOFERRIN-OSTEOPONTIN-IRON COMPLEX” (NESTEC S.A., priority 2013, published 2016)

Assay: Colour change of iron fortified strawberry-banana yoghurt after flash pasteurization (CIELAB colorimetry)
Format: physicochemical
Settings: colour difference vs yoghurt with no iron salts; Jogolino Strawberry/Banana yoghurt, approx. 0.8 mg iron per 100 g; flash pasteurized at 105° C. for 2 minutes
Protocol: Commercial yoghurt, Nestlé Jogolino™ Strawberry/Banana yoghurt containing 15% banana puree and 10% strawberry puree, was iron fortified by the addition of different iron containing materials to 5 kg yoghurt as reported in the table below. The amounts were chosen to provide approximately 0.8 mg iron per 100 g yoghurt. A 100 g serving of yoghurt with that level of iron would provide 15% of the recommended daily amount of iron for an infant [Official Journal of the European Union, Commission Directive 2006/125/EC].
For the lactoferrin-osteopontin-iron complex (Trial B), the powder from Example 1 was added to yoghurt at a level of 28 g per 5 kg yoghurt. The resulting yoghurt composition comprised 5.6 g powder per kg which is 4 g LF-OPN-Fe complex per kg.
The yoghurts were flash pasteurized at 105° C. for 2 minutes. Colour measurements were performed in 1×1 cm polystyrene cuvettes using an X-Rite ColorEye 7000A colorimeter. The colorimeter was set up with a D65 light source, 10 degree observer angle and with specular component included. The colour difference between the yoghurt with no iron salts and the iron fortified yoghurt was measured for each iron salt and expressed as ΔEab* using the CIELAB colour scale.

For `O.O=S(=O)([O-])[O-].[Fe+2]` [FeSO4 × H2O], the “ΔEab*” value was 4.74.

For `O.O=C([O-])CN(CCN(CC(=O)[O-])CC(=O)[O-])CC(=O)[O-].[Fe+3].[Na+]` [NaFeEDTA × H2O], the “ΔEab*” value was 3.11.
